Experimental data as given in PubChem BioAssay AID977630 (Broad Institute, 2014).
Records with an inconclusive call do not appear. Activity calls are given as the source filed them.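 Rule for the calls: active = Normal-ribosome green reporter loss at least double humanized-ribosome red reporter loss, with overall culture growth inhibition under a set limit; inconclusive = no clear call, values can overlap the other calls; inactive = the rest.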

Legend:
[1] = system: E. coli humanized H38 RFP strain growth, mixed culture, 24 h; assay: E. coli growth inhibition, wild-type GFP versus H38 humanized RFP strain – H38 mutant RFP vs wild-type GFP, cherry-pick, dose response (AID 977630)
[2] = system: E. coli wild-type GFP growth, mixed culture, 24 h; assay: as above
[3] = E. coli mixed culture total OD600 growth, 24 h

Row | SMILES | AC50 [1] [µM] | AC50 [2] | AC50 [2, 3] [µM]
1 | COc1cc(NC(=O)c2ccc(Cl)cc2)c(OC)cc1NC(=O)CN1CCCCC1 | > 100 | > 100 µM (inactive) | > 100
2 | CC(C)(C)S(=O)(=O)Cc1nc(-c2ccc(Cl)c(Cl)c2)cs1 | > 100 | – | > 100
3 | Fc1ccccc1C1CCN(Cc2nc(COc3ccccc3)no2)C1 (stereo not drawn) | > 100 | – | –
4 | CS(=O)(=O)N1CC2CCCN2c2ccc(C(F)(F)F)cc21 (stereo not drawn) | > 100 | > 100 µM (inactive) | > 100
5 | O=C(Nc1ccccc1N1CCOCC1)C1CCCCN1S(=O)(=O)c1ccccc1 (stereo not drawn) | 49.8 | – | > 100
6 | Cc1ccc([N+](=O)[O-])c(OCCn2cnc3ccccc32)c1 | > 100 | – | –
7 | CCc1cc2ccc(OC)cc2nc1SCC(=O)N1CCN(C(=O)c2ccco2)CC1 | > 100 | > 100 µM (inactive) | –
8 | COc1cc(OC)cc(C(=O)N[C@H](C(=O)OCC(=O)Nc2ccc(F)c(F)c2F)C(C)C)c1 | > 100 | > 100 µM (inactive) | –
9 | Nc1nc2ccccc2n1CCOc1ccc(F)cc1 | < 0.6 | > 100 µM (inactive) | –
10 | Nc1nc(=S)ss1 | < 0.6 | > 100 µM (inactive) | > 100
11 | COC(=O)c1nc(-c2ccc(C)cc2)[nH]c1C(C)(C)C | > 100 | – | –
12 | CSc1nnnn1-c1ccc(Cl)cc1 | > 100 | – | –
13 | O=C1NC(CCc2ccccc2)C(=O)N1Cc1cccc2ccccc12 (stereo not drawn) | 50.1 | > 100 µM (inactive) | 51.8
14 | CS(=O)(=O)c1ccc(Cl)c(NC(=O)COC(=O)c2c(Cl)cccc2Cl)c1 | > 100 | > 100 µM (inactive) | > 100
15 | Nc1ncncc1-c1ccc2ccccc2c1 | > 100 | > 100 µM (inactive) | –
16 | CN(C(=O)COc1ccccc1C(=O)NCCOc1ccccc1)c1ccccc1 | 44.2 | > 100 µM (inactive) | –
17 | CCOC(=O)[C@]12Cc3ccccc3[C@H]1N(C)C(=O)c1cc(OC)ccc12 | 48.7 | > 100 µM (inactive) | 34.2
18 | COc1ccc(-c2nn(-c3ccccc3C)cc2CNCc2cccnc2)cc1F | > 100 | – | > 100
19 | COc1cccc(NC(=O)C2CCC(CNS(=O)(=O)c3cccc4cccnc34)CC2)c1 (stereo not drawn) | > 100 | – | –
20 | Cc1cc(SCC(=O)OCC(=O)NCC2CCCO2)c(C)cc1Br (stereo not drawn) | > 100 | > 100 µM (inactive) | –
21 | O=C(CCCSc1nc2ccccc2s1)NCc1ccc2c(c1)OCO2 | > 100 | > 100 µM (inactive) | 43.8
22 | CC(C)C[C@H]1COc2cc(Br)ccc2S(=O)(=O)N1 | 47 | > 100 µM (inactive) | –
23 | Cc1ccccc1NS(=O)(=O)c1cc(C(=O)NCCC2=CCCCC2)ccc1C | > 100 | – | > 100
24 | CCn1cc(Br)c(C(=O)Nc2ccc(C(=O)OC(C)C)cc2)n1 | 52 | > 100 µM (inactive) | 47.3
25 | COc1cc(NC(=O)C(c2ccccc2)c2ccccc2)c(C(=O)O)cc1OC | 22.3 | > 100 µM (inactive) | –
26 | COc1ccccc1CN1Cc2ccccc2Oc2ccccc2S1(=O)=O | – | > 100 µM (inactive) | > 100

Row | SMILES | AC50 [1] [µM] | AC50 [2] | AC50 [2, 3] [µM]
27 | CCn1c(-c2ccccc2Cl)nn(CC(=O)Nc2ccccc2OC)c1=S | – | > 100 µM (inactive) | > 100
28 | COC(=O)CC#C[C@H](C)[C@@H](NS(=O)(=O)c1ccc([N+](=O)[O-])cc1)C(C)(C)C | – | > 100 µM (inactive) | –
29 | CSc1ncc(CN2CCCC(C(=O)c3cccc(Cl)c3)C2)cn1 (stereo not drawn) | – | > 100 µM (inactive) | > 100
30 | C=CCn1c(C)cc(C(=O)CSc2nnc(C3CC3)n2C2CC2)c1C | – | > 100 µM (inactive) | > 100
31 | O=C(Nc1cccc(O)c1)c1cccc(S(=O)(=O)Nc2cccc(O)c2)c1 | – | > 100 µM (inactive) | > 100
32 | CCOC(=O)c1csc(NC(=O)CC2CCCC2)n1 | 51.7 | > 100 µM (inactive) | –
33 | COc1ccc(NS(=O)(=O)c2ccc(Cl)c(NC(=O)c3ccccc3F)c2)cc1 | > 100 | > 100 µM (inactive) | –
34 | C=CCN(c1ccccc1)S(=O)(=O)c1ccc(Cl)c(C(=O)OCC(=O)NCCCN2CCCC2=O)c1 | – | – | > 100
35 | O=C(O)CC(CC(=O)Nc1ccc(Oc2ccccc2)cc1)c1ccccc1 (stereo not drawn) | – | > 100 µM (inactive) | > 100
36 | Cc1c(Cc2ccccc2)sc(NC(=O)Cc2ccccc2)c1C(N)=O | – | > 100 µM (inactive) | –
37 | CN(c1ccc(C(=O)NCc2cccs2)cc1)S(=O)(=O)c1ccccc1 | > 100 | – | –
38 | O=C(Cc1c(Cl)cccc1Cl)Nc1cccc(S(=O)(=O)N2CCOCC2)c1 | – | > 100 µM (inactive) | –
39 | Cn1cc(CN2CCCC(C(=O)c3cccs3)C2)c(-c2cccc(Cl)c2)n1 (stereo not drawn) | – | > 100 µM (inactive) | –
40 | CC(C)(C)c1ccc(S(=O)(=O)NCc2ccc(C(=O)NCc3ccccn3)cc2)cc1 | 49.9 | > 100 µM (inactive) | > 100
41 | COc1ccc(OC2C(=O)N(Cc3ccc4c(c3)OCO4)C2c2cccs2)cc1 (stereo not drawn) | 11.5 | > 100 µM (inactive) | –
42 | COC(=O)c1sc(C(C)(C)C)cc1CS(=O)(=O)c1ccc(Cl)cc1 | – | > 100 µM (inactive) | –
43 | Fc1ccc(-c2nc3ccc(Cl)cn3c2Cc2cccc(Cl)c2)cc1 | – | – | > 100
44 | FC(F)(F)c1ccc(Cl)c(-n2c(Cc3cccs3)n[nH]c2=S)c1 | – | > 100 µM (inactive) | –
45 | CCN(CC)S(=O)(=O)c1cccc(NC(=O)CNc2cccc(S(=O)(=O)N3CCCC3)c2)c1 | – | > 100 µM (inactive) | –
46 | Cc1ccc(S(=O)(=O)NCc2c(-c3ccccc3)noc2C)cc1 | – | > 100 µM (inactive) | –
47 | Cc1ccccc1-c1nc(CS(=O)(=O)CC(=O)N2CCCCC2)c(C)o1 | > 100 | – | 45.5
48 | CN(C)CCCN(C(=O)COc1ccc(Cl)cc1)c1nc2ccc(F)cc2s1 | – | > 100 µM (inactive) | –
49 | CCOCCCNC(=O)C(NC(=O)c1ccccc1O)c1ccc(C)cc1 (stereo not drawn) | – | > 100 µM (inactive) | > 100
50 | C=CCN(CC=C)C(=O)c1ccc2nc(Cc3ccc(OC)c(OC)c3)oc2c1 | – | > 100 µM (inactive) | –
51 | Cc1cc(C(=O)NCCC2=CCCCC2)ccc1[N+](=O)[O-] | – | > 100 µM (inactive) | –
52 | CCC1(CC)NC(=O)N(CC(=O)N2N=C(c3ccc(Cl)cc3)CC2c2ccco2)C1=O (stereo not drawn) | – | > 100 µM (inactive) | –

Row | SMILES | AC50 [1] [µM] | AC50 [2] | AC50 [2, 3] [µM]
53 | COc1ccc(OC)c(-c2csc(NC(=O)C3COc4ccccc4O3)n2)c1 (stereo not drawn) | – | > 100 µM (inactive) | –
54 | Cc1cccc(NC(=O)c2sc3nc(-c4ccccc4)cn3c2C)n1 | – | – | > 100
55 | Cc1onc(-c2ccccc2Cl)c1C(=O)Nc1ccc(Cl)cn1 | – | > 100 µM (inactive) | –
56 | COc1cc(NC(=O)COC(=O)CC(C)(C)C)c(C)cc1[N+](=O)[O-] | – | > 100 µM (inactive) | > 100
57 | Cc1cc(C)n2nc(C(=O)Nc3cccc(S(=O)(=O)N(C)c4ccccc4)c3)nc2n1 | – | > 100 µM (inactive) | –
58 | O=C(c1cnc(Cc2c[nH]c3ccccc23)c(I)c1)N1CCCCC1 | – | > 100 µM (inactive) | > 100
59 | O=C(NCc1ccco1)c1ccc(COc2cccc3ccccc23)cc1 | – | > 100 µM (inactive) | –
60 | Cc1cc(C(=O)OCC(=O)Nc2cccc(S(N)(=O)=O)c2)c2ccccc2n1 | – | > 100 µM (inactive) | > 100
61 | O=C(NCc1ccc2c(c1)OCO2)C1CCCN1S(=O)(=O)c1ccc(Cl)cc1 (stereo not drawn) | – | > 100 µM (inactive) | –
62 | O=C(c1ccc(N2CCCCC2)c([N+](=O)[O-])c1)N1CCN(c2ccccn2)CC1 | – | > 100 µM (inactive) | > 100
63 | CCN(CC)C(=O)c1ccc(COc2ccccc2Cl)o1 | – | > 100 µM (inactive) | > 100
64 | Cc1cccc(Oc2ccc(NC(=O)c3ccccc3C(=O)O)cc2)c1 | – | > 100 µM (inactive) | –
65 | O=C(CCNc1cccc(Cl)c1)c1cccs1 | – | > 100 µM (inactive) | –
66 | CS(=O)(=O)c1ccc(Cl)c(NC(=O)CSc2nncn2-c2ccccc2)c1 | – | > 100 µM (inactive) | –
67 | O=C1OC[C@@H]2CCCN2C(=O)[C@@H](CC(=O)N(CCO)Cc2ccccc2)C/C=C\C[C@H]1Cc1ccc(F)cc1 | – | > 100 µM (inactive) | –
68 | Cc1nn2c(NCc3ccccn3)cc(C(C)C)nc2c1-c1ccccc1 | – | > 100 µM (inactive) | –
69 | Cc1ccc(NC(=O)c2ccc([N+](=O)[O-])s2)cc1S(=O)(=O)N1CCOCC1 | – | > 100 µM (inactive) | > 100
70 | N#Cc1nc(-c2ccco2)oc1NCc1ccccc1Cl | – | > 100 µM (inactive) | 41.5
71 | O=C1c2ccccc2NC(c2ccc(-c3cccc([N+](=O)[O-])c3)o2)N1O (stereo not drawn) | 7.43 | > 100 µM (inactive) | –
72 | CC(C)(C)N(Cc1ccccc1)C(=O)COC(=O)Cn1cnc2ccccc2c1=O | – | > 100 µM (inactive) | –
73 | O=C(NCc1ccccc1)c1ccc(-c2cn[nH]c2)c2ccoc12 | > 100 | > 100 µM (inactive) | –
74 | CCCc1c(C(=O)Nc2ccc(OC)cc2)cnn1-c1ccccc1 | – | > 100 µM (inactive) | > 100
75 | O=S1(=O)c2ccc(Br)cc2OCCC2CCCCN21 (stereo not drawn) | – | > 100 µM (inactive) | > 100
76 | COc1ccc(-c2cc(C(=O)O)nc3ccc4ccccc4c23)cc1OC | > 100 | – | –
